Laboratory results taken from patent US4472421A, “Azole antimycotics and their use in treating skin conditions caused by Pityrosporum ovale” (Bayer Aktiengesellschaft, priority 1974, dated 1984).
Converted amounts (≈) assume the structure as drawn. Structures can show the parent of a compound that is named as a salt. Where two headings read alike, the source gives them in different places.

Test system: Pityrosporum ovale
Assay: MIC and PI determination on Abbe's medium agar slants, dilution series
Type: cell-based
Conditions: Malassezia furfur, 28° C.
Protocol: Pityrosporum ovale was cultured and the MIC determinations were carried out with a large number of azole derivatives. The growth of Pityrosporum ovale is considerably slower than, for example, of species of Candida or Torulopsis--it takes 3 to 5 days. It requires Abbe's medium as a special nutrient medium.
1. Setting up the dilution series of each preparation: 6.4 mg of preparation are dissolved in 1 ml of analytical grade dimethylformamide and 9 ml of distilled water are added. 1 ml now contains 640 mcg of preparation. If 2 ml are withdrawn and added to 2 ml of H2 O, the resulting concentration is 320 mcg/ml. If this is continued progressively,the following dilution series, in mcg/ml, is obtained: 640-320-160-80-40-20-10-5-2.5-1.25-0.625-0.313-0.156-0.078-0.039-0.02-0.01
2. Charging the test tubes: 0.5 ml portions of the particular dilution are introduced into test tubes.
3. Charging with nutrient medium: Abbe's medium is used.
200 ml portions of Abbe's medium are introduced into nutrient medium flasks. For use, the previously calculated amount of Abbe's medium is liquefied in a steaming pot and cooled until only warm to the touch; 4.5 ml are then added to each test tube. A second person receives each test tube and twirls it between his hands, like a kitchen whisk. This achieves good mixing of the diluted preparation with the nutrient medium. Each test tube is then immediately brought into a slanting position, in the same way as is usually employed to prepare agar slants.
The culture control and the nutrient medium control are each 1 test tube in which 0.5 ml of H2 O is introduced in place of the preparation.
4. Inoculation with Pityrosporum ovale: A culture which had been grown for 3 weeks in Benham's fluid medium at 28° C. was used.
After the nutrient medium has solidified thoroughly in all the test tubes, 0.1 ml of culture is allowed to run over each slant, except for the test tube of the nutrient medium control. 0.1 ml of physiological NaCl solution is added to the latter.
5. Incubation and readings: The incubation is carried out at 28° C. After 3 days, the culture control test tubes show germ growth, which reaches an optimum after 5 days.
The MIC=minimum inhibitory concentration, and the PI=partial inhibition (retardation of growth by about 90% relative to the control, that is to say only about 10% of the germs have grown) are read off in comparison to the control.
Of course,--as is usual in microbiology--all the work was carried out under sterile conditions, that is to say, using, for example, sterile test tubes, pipettes, nutrient media and the like.

[1] = 72 h, reading after 3 days, read-out: MIC (minimum inhibitory concentration), reading after 3 days
[2] = 72 h, reading after 3 days, read-out: PI (partial inhibition, growth reduced by at least 90% compared to the control), reading after 3 days
[3] = 120 h, reading after 5 days, read-out: MIC (minimum inhibitory concentration), reading after 5 days
[4] = 120 h, reading after 5 days, read-out: PI (partial inhibition, growth reduced by at least 90% compared to the control), reading after 5 days

Structure (SMILES) | MIC [1] [µg/mL] | IC90 [2] [µg/mL] | MIC [3] [µg/mL] | IC90 [4] [µg/mL]
CC(C)(C)C(O)C(Oc1ccc(-c2ccccc2)cc1)n1ccnc1 (stereo not drawn) [Example 7] | 4 (≈ 11.9 µM) | 2 (≈ 5.94 µM) | 8 (≈ 23.8 µM) | 2 (≈ 5.94 µM)
CC(C)(C)C(=O)C(Oc1ccc(Cl)cc1)n1ccnc1 (stereo not drawn) [Example 1, [1-imidazolyl-(1)]-[1-(4'-chloro)phenoxy]-3-dimethyl-butane-2-one] | < 1 |  | < 1 | 
Cc1ccccc1C1(n2ccnc2)c2ccccc2-c2ccccc21 [Example 9] | 8 (≈ 24.8 µM) | 2 (≈ 6.2 µM) | 8 (≈ 24.8 µM) | 4 (≈ 12.4 µM)
CC(C)(C)C(=O)C(Cn1ccnc1)Oc1ccc(Cl)cc1Cl (stereo not drawn) [Example 5, hydrochloride] | 2 | < 1 | 2 | < 1
CC(C)(C)C(=O)C(Oc1ccc(Br)cc1)n1ccnc1 (stereo not drawn) [Example 3] | < 1 |  | < 1 | 
Clc1ccccc1C(c1ccccc1)(c1ccccc1)n1ccnc1 [Example 13] | 16 (≈ 46.4 µM) | 8 (≈ 23.2 µM) | 16 (≈ 46.4 µM) | 8 (≈ 23.2 µM)
CC(C)(C)C(=O)C(Cn1ccnc1)Oc1ccc(-c2ccccc2)cc1 (stereo not drawn) [Example 12] | 8 (≈ 23 µM) | < 1 | 8 (≈ 23 µM) | < 1
CC(C)(C)C(=O)C(Oc1ccc(-c2ccc(Cl)cc2)cc1)n1ccnc1 (stereo not drawn) [Example 4, [1-imidazolyl-(1)]-[1-(4'-(4"-chlorophenyl)-phenoxy]-3,3-dimethyl-butan-2-one hydrochloride] | < 1 |  | < 1 | 
CCC(c1ccccc1)(c1ccccc1)n1ccnc1 [Example 14] | 32 (≈ 122 µM) | 4 (≈ 15.2 µM) | 32 (≈ 122 µM) | 4 (≈ 15.2 µM)
CC(C)(C)C(O)C(Oc1ccc(Cl)cc1Cl)(c1ccccc1)n1ccnc1 (stereo not drawn) [Example 19] | > 64 | 64 (≈ 158 µM) | > 64 | 64 (≈ 158 µM)
CC(=O)C(c1ccccc1)(c1ccccc1)n1ccnc1 [Example 15] | 32 (≈ 116 µM) | 4 (≈ 14.5 µM) | 64 (≈ 232 µM) | 4 (≈ 14.5 µM)
Clc1cccc(C(c2ccccc2)(n2ccnc2)n2ccnc2)c1 [Example 17] | > 64 | 32 (≈ 95.6 µM) | > 64 | 32 (≈ 95.6 µM)
CC(C)(C)C(=O)C(Oc1ccc(Cl)cc1Cl)n1ccnc1 (stereo not drawn) [Example 2] | < 1 |  | < 1 | 
CC1(n2ccnc2)c2ccccc2CCc2ccccc21 [Example 18] | > 64 | 32 (≈ 117 µM) | > 64 | 32 (≈ 117 µM)
COC(=O)C(c1ccccc1)(c1ccccc1)n1ccnc1 [Example 11] | 16 (≈ 54.7 µM) | < 1 | 16 (≈ 54.7 µM) | < 1
CC(C)(C)C(=O)C(Cn1ccnc1)Oc1ccc(Cl)cc1 (stereo not drawn) [Example 8] | 4 (≈ 13 µM) | 2 (≈ 6.52 µM) | 8 (≈ 26.1 µM) | 4 (≈ 13 µM)
Brc1cccc(C(c2ccccc2)(n2cncn2)n2cncn2)c1 [Example 22] | > 64 |  | > 64 | 
Cn1ccnc1C(c1ccccc1)(c1ccc(-c2ccccc2)cc1)n1ccnc1 (stereo not drawn) [Example 21] | > 64 |  | > 64 | 
Clc1ccc(C(c2ccccc2)(c2ccccc2)n2ccnc2)cc1 [Example 16] | > 64 | 16 (≈ 46.4 µM) | > 64 | 16 (≈ 46.4 µM)
Brc1cccc(C(c2ccccc2)(n2ccnc2)n2ccnc2)c1 [Example 20] | > 64 | 64 (≈ 169 µM) | > 64 | 64 (≈ 169 µM)
C#CC(c1ccccc1)(c1ccccc1)n1ccnc1 [Example 10] | 8 (≈ 31 µM) | < 1 | 16 (≈ 61.9 µM) | < 1
